Legend:
[1] = oil/water partition coefficient; Table 1; ref PubChem; cited from earlier work
[2] = Parallel artificial membrane permeability assay for the blood–brain barrier (PAMPA-BBB); details: for AerExt log Pe: compound within AerExt donor solution; for AerExt log Pe / RootExt log Pe: 37 °C, 4 h, PBS pH 7.4, n.q. = not quantified in the acceptor plate; for RootExt log Pe: compound within RootExt donor solution; for AerExt Cross BBB Potential: compound within AerExt; for AerExt Cross BBB Potential / RootExt Cross BBB Potential: PAMPA-BBB; for RootExt Cross BBB Potential: compound within RootExt; for Papp at 4 h: PAMPA, pH 7.4
Method: The permeability of bioactive compounds from AerExt and RootExt across the BBB was assessed using the PAMPA-BBB assay, following the methodology described by [11]. Firstly, the BBB solution was prepared by dissolving 8 mg of PBL and 4 mg of cholesterol in 600 μL of n-dodecane. The initial donor solution was prepared by mixing 1 mL of AerExt or RootExt (at 10 mg mL^−1 in EtOH) with 1 mL of buffer (PBS, pH = 7.4, 10 mM). The filter membrane of the donor plate was coated with 5 μL of BBB solution. The acceptor plate was filled with 350 μL of buffer, and the donor plate was carefully placed on top of the acceptor plate to form a “sandwich-like” assembly. Subsequently, 350 μL of the donor solution was added to the donor plate, which was then covered and incubated at 37 °C for 4 h in the dark. After the incubation time, 300 μL of the solution was collected from each plate, transferred into separate vials, and evaporated using a SpeedVac system at 40 °C under 13 mbar pressure. The dried acceptor and donor solutions were dissolved in 50 μL of pure EtOH before being subjected to HPLC-Q-TOF-MS/MS and GC-Q-TOF-MS analysis. Permeability (Pe) across the PAMPA-BBB of the bioactive compound was calculated according to Equation (1) [54], with modifications in concentration rates.Pe = −ln[1 − CA(t)/Cequilibrium]/(A × (1/VD + 1/VA) × t)(1)
Cequilibrium was calculated according to Equation (2):Cequilibrium = [CD(t) × VD + CA(t) × VA]/(VD + VA)(2)
The HPLC-MS and GC-MS chromatograms were processed using the Agilent Mass Hunter Qualitative software (version B.10.0) to verify the retention time and exact mass of the compounds previously reported by us [25] and to extract their peak area to calculate the BBB permeability.

HBMEC cells = experiment: Blood–brain barrier transport study in HBMEC Transwell monolayer; details: n.q. = not quantified in the basolateral compartment; for AerExt Te (%) ± SD 2 h / AerExt Te (%) ± SD 4 h / AerExt Te (%) ± SD 24 h: AerExt 40 µg mL^−1 apical; for RootExt Te (%) ± SD 2 h / RootExt Te (%) ± SD 4 h / RootExt Te (%) ± SD 24 h: RootExt 20 µg mL^−1 apical

Compound | log p [1] | AerExt log Pe [2] | RootExt log Pe [2] | also measured
C=CC1(C)CCC(=C(C)C)CC1C(=C)C (stereo not shown) [γ-elemene] | 5.4 | n.q. | n.q. | 
CC1=CCC[C@@H](C)[C@]12CC[C@@H](C(C)(C)O)C2 [Agarospirol] | 3.7 | n.q. | n.q. | 
CC(=O)O[C@@H]1[C@@H](OC(C)=O)[C@@H](O)[C@H](Oc2c(-c3ccc(O)cc3)oc3cc(O)cc(O)c3c2=O)O[C@H]1C [Kaempferol 3-O-(3″,4″-di-O-acetyl-a-L-rhamnopyranoside)] | −0.9 | n.q. |  | 
COc1cc(/C=C/C(=O)O)ccc1O [Ferulic acid] |  |  | n.q. | AerExt Te (%) ± SD 2 h (HBMEC cells): 1.9 ± 0.2%; AerExt Te (%) ± SD 2 h (HBMEC cells; listed as ferulic acid): 2%; AerExt Te (%) ± SD 4 h (HBMEC cells): 1.9 ± 0.2%; AerExt Te (%) ± SD 24 h (HBMEC cells): 19.8 ± 10.3%; AerExt Te (%) ± SD 24 h (HBMEC cells; listed as ferulic acid): 20%; RootExt Te (%) ± SD 2 h (HBMEC cells): n.q.; RootExt Te (%) ± SD 4 h (HBMEC cells): n.q.; RootExt Te (%) ± SD 24 h (HBMEC cells): n.q.
CC1(C)C[C@H](O)C[C@@]2(C)OC(=O)C=C12 [Loliolide] | 1.0 |  |  | AerExt Te (%) ± SD 2 h (HBMEC cells): 6.2 ± 0.7%; AerExt Te (%) ± SD 4 h (HBMEC cells): 12.1 ± 0.8%; AerExt Te (%) ± SD 24 h (HBMEC cells): 12.4 ± 0.8%
CC1=C[C@H]2[C@@H](CC1=O)[C@H](C)C[C@H](O)[C@H]2C(C)C [8-hydroxyageraphorone] | 2.9 |  |  | AerExt Te (%) ± SD 2 h (HBMEC cells): n.q.; AerExt Te (%) ± SD 4 h (HBMEC cells): n.q.; AerExt Te (%) ± SD 24 h (HBMEC cells): n.q.; RootExt Te (%) ± SD 2 h (HBMEC cells): n.q.; RootExt Te (%) ± SD 4 h (HBMEC cells): n.q.; RootExt Te (%) ± SD 24 h (HBMEC cells): 124.7 ± 16.9%
C=C(C)C(O)CCC(C)C1CCC2(C)C3CCC4C(C)(C)C(O)CCC45CC35CCC12C (stereo not shown) [9,19-cyclolanost-25-ene-3,24-diol] | 8.6 | −5.60 | −5.79 | AerExt Cross BBB Potential [2]: + (log Pe < −6.5); RootExt Cross BBB Potential [2]: + (log Pe < −6.5)
C[C@@H]1CCC=C2CC[C@@H](C(C)(C)O)C[C@]21C [Valerianol] | 3.5 | −5.35 | −5.59 | RootExt Cross BBB Potential [2]: + (log Pe < −6.5)
C[C@H]1CC[C@@H](C(C)(C)O)CC2=C1CC[C@@H]2C [Guaiol] | 3.1 | n.q. | n.q. | 
CC(C)=CCCC(C)(O)[C@H]1CC[C@]2(C)[C@@H]1[C@H](O)C[C@@H]1[C@@]3(C)CC[C@H](O)C(C)(C)[C@@H]3CC[C@]12C (stereo in doubt) [Protopanaxadiol] | 7.2 | n.q. | n.q. | 
COc1cc(-c2cc(=O)c3c(O)cc(O)cc3o2)ccc1O [Chrysoeriol] | 1.7 | n.q. |  | 
O=c1ccc2cc(O)c(O)cc2o1 [6,7-dihydroxycoumarin] | 1.2 |  | n.q. | RootExt Cross BBB Potential [2]: –
COc1ccc(-c2cc(=O)c3c(O)cc(O)cc3o2)cc1O [Diosmetin] | 1.7 |  |  | Papp at 4 h [2]: 148 ×10⁻⁶ cm/s
COc1cc2ccc(=O)oc2cc1O [7-hydroxy-6-methoxycoumarin] | 1.5 |  |  | AerExt Te (%) ± SD 2 h (HBMEC cells): 0.6 ± 0.2%; AerExt Te (%) ± SD 4 h (HBMEC cells): 1.9 ± 0.1%; AerExt Te (%) ± SD 24 h (HBMEC cells): 6.1 ± 1.5%; RootExt Te (%) ± SD 2 h (HBMEC cells): n.q.; RootExt Te (%) ± SD 4 h (HBMEC cells): n.q.; RootExt Te (%) ± SD 24 h (HBMEC cells): n.q.
CC(=O)c1ccc(O)c(O)c1 [3,4-dihydroxyacetophenone] | 1.5 |  |  | Papp at 4 h [2]: 17.4 ×10⁻⁶ cm/s
O=Cc1ccc(O)cc1 [4-hydroxybenzaldehyde] |  |  |  | AerExt Te (%) ± SD 2 h (HBMEC cells): 23.3 ± 3.1%; AerExt Te (%) ± SD 4 h (HBMEC cells): 18.5 ± 0.3%; AerExt Te (%) ± SD 24 h (HBMEC cells): 49.4 ± 5.9%; RootExt Te (%) ± SD 2 h (HBMEC cells): 62.1 ± 21.9%; RootExt Te (%) ± SD 4 h (HBMEC cells): 57.5 ± 1.7%; RootExt Te (%) ± SD 24 h (HBMEC cells): 184.6 ± 23.0%
COc1cc(/C=C/CO)cc(OC)c1O [trans-sinapyl alcohol] | 1.3 |  |  | RootExt Cross BBB Potential [2]: + (log Pe < −6.5)
C=CCc1cc(OC)c(OC)c(OC)c1 [Elemicin] | 2.5 |  |  | 
O=c1c(OC2OC(CO)C(O)C(O)C2O)c(-c2ccc(O)c(O)c2)oc2cc(O)cc(O)c12 (stereo not shown) [Isoquercetrin] | −0.2 | n.q. | n.q. | AerExt Cross BBB Potential [2]: –; RootExt Cross BBB Potential [2]: –
CC1CCCC2(C)CCC(C(C)(C)O)C=C12 (stereo not shown) [Rosifoliol] | 3.9 | n.q. | n.q. | 
α-epi-7-epi-5-eudesmol | 3.4 | n.q. | n.q. | 
